Data as given in US20060035862A1, “Tolerance of 4-(4-(2-pyrrolycarbonyl)-1-piperazinyl)-3-trifluoromethyl-benzoylguanidine in intravenous administration” (Boehringer Ingelheim Pharma KG, priority 2001, published 2006).
Where a name gives a salt, the structure may show the parent alone.

Assays:
[1] = local tolerance in dogs (bolus and infusion); format: in vivo
Protocol: In the second step the appropriate ratio of HPβCD to active substance was determined from the local tolerance in dogs.

[2] = stability of the active substance (hydrolysis); format: physicochemical; conditions: only anhydrous formulations are stable
From the text: Therefore, lyophilisates have been developed, which have to be reconstituted before use.

[3] = local tolerance after intravenous administration; format: in vivo
Protocol: When they are administered parenterally some local intolerances occasionally arise.

citrated human blood = assay: in vitro haemolysis test (solution mixed 1:1 with citrated human blood, 37° C.); format: cell-based
From the text: In the following description the term “active substance”, on its own or in combination, always denotes 4-(4-(2-pyrrolylcarbonyl)-1-piperazinyl)-3-trifluoromethyl-benzoylguanidine hydrochloride, unless otherwise stated. Both a monohydrate and a hemihydrate of 4-(4-(2-pyrrolylcarbonyl)-1-piperazinyl)-3-trifluoromethyl-benzoylguanidine hydrochloride may be obtained. For all the experiments the hemihydrate was used. The quantitative data used hereinafter always relate to the free base; i.e. the quantities specified correspond to the theoretical amount of free base, whereas in reality a correspondingly larger amount of hemihydrate was added. In each case glucose was used to render the solution isotonic. The isotonic nature of the solutions was checked in each case by lowering the freezing point. In in-vitro haemolysis tests in each case the solution to be tested was mixed with citrated human blood in the ratio 1:1 and kept at 37° C. during the incubation period. […]

[4] = local tolerance study on rabbits (bolus and 8 minutes infusion); format: in vivo
[5] = local tolerance trial on rats (30 minutes' infusion into the caudal vein); format: in vivo

For `N=C(N)NC(=O)c1ccc(N2CCN(C(=O)c3ccc[nH]3)CC2)c(C(F)(F)F)c1` [active substance, 4-(4-(2-pyrrolylcarbonyl)-1-piperazinyl)-3-trifluoromethyl-benzoylguanidine hydrochloride], the local tolerance ([1]; weight ratio HPβCD to active substance 10:1, bolus, active substance concentration 10 mg/ml) was “suitable”, the local tolerance ([1]; weight ratio HPβCD to active substance 10:1, infusion, active substance concentration between 1.5 mg/ml and 3 mg/ml) was “suitable” and the stability [2] was “prone to hydrolysis”. For the same compound, the local tolerance [3] was “locally poorly tolerated”, the degree of haemolysis (citrated human blood; 10 mg/ml active substance, 100 mg/ml PVP 17 PF, aqueous isotonic solution, incubation 45 minutes) was 17% and the haemolysis observed (citrated human blood; 1% aqueous isotonic active substance solution containing 10% HPβCD, incubation 45 minutes) was “no haemolysis”. The “degree of haemolysis (%)” value (citrated human blood; active substance 0.5 mg/ml, aqueous isotonic solution, no tolerance measures, incubation two hours) was 0%, the “degree of haemolysis (%)” value (citrated human blood; active substance 1.0 mg/ml, aqueous isotonic solution, no tolerance measures, incubation two hours) was 1% and the “degree of haemolysis (%)” value (citrated human blood; active substance 1.5 mg/ml, aqueous isotonic solution, no tolerance measures, incubation two hours) was 4%. The “degree of haemolysis (%)” value (citrated human blood; active substance 1.5 mg/ml, no tolerance measures, incubation 45 minutes) was 0%, the “degree of haemolysis (%)” value (citrated human blood; active substance 10 mg/ml, HPβCD 0 mg/ml, incubation 45 minutes) was 100% and the “degree of haemolysis (%)” value (citrated human blood; active substance 10 mg/ml, HPβCD 100 mg/ml, incubation 45 minutes) was 0%. For the same compound, the “degree of haemolysis (%)” value (citrated human blood; active substance 10 mg/ml, Poloxamer 188 0 mg/ml, incubation 45 minutes) was 99%, the “degree of haemolysis (%)” value (citrated human blood; active substance 10 mg/ml, Poloxamer 188 100 mg/ml, incubation 45 minutes) was 4% and the “degree of haemolysis (%)” value (citrated human blood; active substance 10 mg/ml, Poloxamer 188 200 mg/ml, incubation 45 minutes) was 0%. The “degree of haemolysis (%)” value (citrated human blood; active substance 10.0 mg/ml, no tolerance measures, incubation 45 minutes) was 100%, the “degree of haemolysis (%)” value (citrated human blood; active substance 10 mg/ml, phospholipid 60 mg/ml, sodium glycocholate 32 mg/ml) was 2% and the “degree of haemolysis (%)” value (citrated human blood; active substance 10 mg/ml, phospholipid 60 mg/ml, sodium glycocholate 36 mg/ml) was 7%. For the same compound, the “degree of haemolysis (%)” value (citrated human blood; active substance 10 mg/ml, phospholipid 75 mg/ml, sodium cholate 50 mg/ml, incubation 45 minutes) was 7%, the “degree of haemolysis (%)” value (citrated human blood; active substance 10 mg/ml, phospholipid 150 mg/ml, sodium cholate 100 mg/ml, incubation 45 minutes) was 0% and the haemolytic activity (citrated human blood; ratio of HPβCD to active substance 6.67:1, active substance concentration 9 mg/ml) was “not haemolytic”. The local tolerance ([4]; 1% active substance solutions containing 10% HPβCD) was “locally well-tolerated”, the local tolerance ([4]; 1% active substance solutions with phospholipid and sodium cholate (mixed micelles)) was “locally well-tolerated” and the local tolerance ([5]; 0.75 mg/ml, no tolerance measures, 30 minutes' infusion into the caudal vein) was “poorly tolerated”. For the same compound, the local tolerance ([5]; 1.5 mg/ml with 100 mg/ml Poloxamer 188, 30 minutes infusion into the caudal vein, compared with 1.5 mg/ml without excipient) was “better tolerated”.
